Laboratory results taken from patent US9694072B2, “Methods for diagnosing and treating neuroendocrine cancer” (Trustees of Dartmouth College, priority 2005, dated 2017).
Read-outs that look alike come from different tables or passages of the source. Each block holds one compound with its values, some of them ahead of it.

Legend:
[1] = tested on: NCI-H345 classical SCLC cells; experiment: Cell growth/viability assay (Alamar Blue)
Method: Cultures of NCI-H345, NCI-H146, DMS-53 cells (classical cell lines), and NCI-H82 cells (variant cell line) were treated with 0.05% trypsin, washed in phosphate buffered saline (PBS)/glycine and plated onto 96-well plates at 10^4 cells/well in medium for 24 hours to provide time for rectifying possible damage to membrane proteins from the trypsinization. The wells were washed and incubated with PBS/glycine containing albumin (1.25 mg/mL) in the presence or absence of different concentrations (25 μM-800 μM) of either the NMDAR 1 antagonists, Memantine or MK-801; or the NMDAR2B antagonists Ifenprodil and Ro 25-6981 (binders to the polyamine site), or the NMDAR2B antagonists L-701,252 and L-701,324 (binders to the glycine site), or vehicle; and Alamar Blue (1:10 dilution following manufacturer's recommendation). Fluorescent readings were taken at periods representing 24, 48, and 72 hours of incubation with antagonist using a Synergy HT Multi-Detection Microplate Reader and excitation/emission wavelengths of 530 nm and 590 nm. Cell viability was evaluated as % vehicle control at the corresponding incubation time.
This peptide domain is represented in that portion of the mRNA message sequenced by RT-PCR. For studies on cell proliferation, the IgGs of this antiserum were first isolated by precipitation with 50% saturated ammonium sulfate, and antibodies purified from these immunoglobulins by affinity chromatography using a column containing the peptide component of the above antigen coupled to SEPHAROSE (Friedmann, et al. (1994) supra; Keegan, et al. (2002) supra).

NCI-H146 cells = experiment: Cell growth/viability assay (Alamar Blue); type: cell-based, human
Method: (§3) Cultures of NCI-H345, NCI-H146, DMS-53 cells (classical cell lines), and NCI-H82 cells (variant cell line) were treated with 0.05% trypsin, washed in phosphate buffered saline (PBS)/glycine and plated onto 96-well plates at 10^4 cells/well in medium for 24 hours to provide time for rectifying possible damage to membrane proteins from the trypsinization. […] Fluorescent readings were taken at periods representing 24, 48, and 72 hours of incubation with antagonist using a Synergy HT Multi-Detection Microplate Reader and excitation/emission wavelengths of 530 nm and 590 nm. Cell viability was evaluated as % vehicle control at the corresponding incubation time.

[2] = tested on: NCI-H82 variant SCLC cells; experiment: Cell growth/viability assay (Alamar Blue); type: cell-based, human; settings: for IC50: read-out: IC50, cell viability; for Cell viability reduced to: NCI-H82, 24, 48, and 72 hours incubation
Method: as §3

DMS-53 cells = experiment: Cell growth/viability assay (Alamar Blue); type: cell-based, human; settings: for effect on cell viability (in words): DMS-53, 48 hours, concentration range used
Method: as §3

[3] = tested on: human LA-N-2 neuroblastoma cells; settings: cited from earlier work
[4] = tested on: human LA-N2 neuroblastoma cells; settings: in the presence of glycine; cited from earlier work
[5] = tested on: MCF-7 breast cancer cells; experiment: Alamar Blue growth/proliferation study; type: cell-based, human; settings: for effect on cell growth/proliferation (in words): MCF-7, in the presence of glycine over 24 hours
LAN2 neuroblastoma cells = experiment: Alamar Blue growth study; type: cell-based, human; settings: LAN2, in the presence of glycine over 24 hours
Method: (§1) Results represent triplicate studies performed with Alamar Blue on LAN2 neuroblastoma, MCF-7 breast cancer, and SKBr3 breast cancer cells examining the growth influence of 1 mM glutamate in the presence of glycine over 24 hours.
(§2) Results represent triplicate studies performed with Alamar Blue on LAN2 neuroblastoma, MCF-7 breast cancer, and SKBr3 breast cancer cells examining the growth influence of 100 mM Mg^++ in the presence of glycine over 24 hours.

[6] = tested on: SKBr3 breast cancer cells; experiment: Alamar Blue growth/proliferation study; type: cell-based, human; settings: for effect on cell growth/proliferation (in words): SKBr3, in the presence of glycine over 24 hours
Method: as §1, §2

[7] = tested on: NCI H82 variant small-cell cancer cell xenografts; experiment: NCI H82 xenografts treated with ifenprodil; type: in vivo, nu/nu mice
Method: Male nu/nu mice were injected subcutaneously with NCI H82 variant small-cell cancer cells (˜10^7 cells/mouse) representing recurrent disease, and tumors became obvious after 2-3 weeks, and commenced growing rapidly. Animals were divided into two groups.
In another set of experiments, NCI H82 tumors were pretreated with cyclophosphamide for three days (single dose of 75 mg/kg body weight) before a single daily dose of i.p. ifenprodil (2.5 mg/kg) commenced.

[8] = Homo sapiens, NCI-H345, 48 h, read-out: IC50, cell viability
[9] = Homo sapiens, NCI-H345, read-out: IC50, cell viability
[10] = Homo sapiens, NCI-H82, 48 and 72 hours of incubation, Alamar Blue (figure legend)
[11] = Homo sapiens, NCI-H82, at 48 hours
[12] = 2.5 mg/kg once daily intraperitoneally

Structure (SMILES): CC(C(O)c1ccc(O)cc1)N1CCC(Cc2ccccc2)CC1 (centres unmarked) [Ro 25-6981]
IC50 ([1]; read-out: IC50, cell viability, NCI-H345, at 48 hours): ~200 µM
effect on cell viability (in words) (NCI-H146 cells; NCI-H146, 48 hours, concentration range used): no clear effects
IC50 ([2]; NCI-H82, at 48 hours): ~200 µM
effect on cell viability (in words) (DMS-53 cells; listed as Ro 25-698): no clear effects

Structure (SMILES): O=c1[nH]c2cc(Cl)ccc2c(O)c1-c1cccc(Oc2ccccc2)c1 [L-701,324]
increase in cell viability to ([1]; NCI-H345, at 48 hours): approximately 140 % of control
increase in cell viability to ([2]; NCI-H82, at 48 hours): approximately 120 % of control

Structure (SMILES): NC(=O)c1ccccc1C(=O)N[C@@H](CCC(=O)O)C(=O)O [NPG, N-phthalamoyl-L-glutamic acid]
Cell cytotoxicity increased ([3]; incubation at 0.1 mM): 28%
Cell cytotoxicity increased ([3]; incubation at 1 mM): 46%
inward sodium current increased [4]: 1.5 ×

Structure (SMILES): [Mg+2] [magnesium]
effect on cell growth/proliferation (in words) [5]: significantly inhibited proliferation
effect on cell growth/proliferation (in words) (LAN2 neuroblastoma cells): significantly inhibited proliferation
effect on cell growth/proliferation (in words) [6]: significantly inhibited proliferation

IC50 [1, 8]: 80 to 130 µM
IC50 [1, 9]: 80 to 100 µM
IC50 (NCI-H146 cells; Homo sapiens, NCI-H146, at 48 hours, read-out: IC50, cell viability): 400 µM
IC50 [2, 10]: 80 to 100 µM
IC50 [2, 11]: 80 to 130 µM
Structure (SMILES): CC12CC3CC(C)(C1)CC(N)(C3)C2 [memantine]
Proliferation of MCF-7 Cells Percent Fluorescence Compared to Control ([5]; 100 μM, 24 Hours): 92.86 ± 6.08%
Proliferation of MCF-7 Cells Percent Fluorescence Compared to Control ([5]; 100 μM, 48 Hours): 89.98 ± 5.30%
Proliferation of MCF-7 Cells Percent Fluorescence Compared to Control ([5]; 100 μM, 72 Hours): 88.48 ± 4.02%
Proliferation of MCF-7 Cells Percent Fluorescence Compared to Control ([5]; 200 μM, 24 Hours): 73.51 ± 5.64%
Proliferation of MCF-7 Cells Percent Fluorescence Compared to Control ([5]; 200 μM, 48 Hours): 49.78 ± 6.85%
Proliferation of MCF-7 Cells Percent Fluorescence Compared to Control ([5]; 200 μM, 72 Hours): 46.62 ± 7.04%
Proliferation of MCF-7 Cells Percent Fluorescence Compared to Control ([5]; 300 μM, 24 Hours): 48.81 ± 5.18%
Proliferation of MCF-7 Cells Percent Fluorescence Compared to Control ([5]; 300 μM, 48 Hours): 22.33 ± 5.21%
Proliferation of MCF-7 Cells Percent Fluorescence Compared to Control ([5]; 300 μM, 72 Hours): 20.02 ± 4.97%
Proliferation of MCF-7 Cells Percent Fluorescence Compared to Control ([5]; 400 μM, 24 Hours): 39.62 ± 5.21%
Proliferation of MCF-7 Cells Percent Fluorescence Compared to Control ([5]; 400 μM, 48 Hours): 15.79 ± 4.79%
Proliferation of MCF-7 Cells Percent Fluorescence Compared to Control ([5]; 400 μM, 72 Hours): 14.38 ± 3.92%
Proliferation of MCF-7 Cells Percent Fluorescence Compared to Control ([5]; 500 μM, 24 Hours): 38.40 ± 2.98%
Proliferation of MCF-7 Cells Percent Fluorescence Compared to Control ([5]; 500 μM, 48 Hours): 14.60 ± 3.21%
Proliferation of MCF-7 Cells Percent Fluorescence Compared to Control ([5]; 500 μM, 72 Hours): 13.40 ± 3.29%
Proliferation of MCF-7 Cells Percent Fluorescence Compared to Control ([5]; 600 μM, 24 Hours): 39.22 ± 4.13%
Proliferation of MCF-7 Cells Percent Fluorescence Compared to Control ([5]; 600 μM, 48 Hours): 15.10 ± 7.28%
Proliferation of MCF-7 Cells Percent Fluorescence Compared to Control ([5]; 600 μM, 72 Hours): 13.66 ± 6.62%
Proliferation of MCF-7 Cells Percent Fluorescence Compared to Control ([5]; 700 μM, 24 Hours): 32.80 ± 2.19%
Proliferation of MCF-7 Cells Percent Fluorescence Compared to Control ([5]; 700 μM, 48 Hours): 12.51 ± 2.35%
Proliferation of MCF-7 Cells Percent Fluorescence Compared to Control ([5]; 700 μM, 72 Hours): 11.89 ± 2.62%
Proliferation of MCF-7 Cells Percent Fluorescence Compared to Control ([5]; 800 μM, 24 Hours): 32.82 ± 2.44%
Proliferation of MCF-7 Cells Percent Fluorescence Compared to Control ([5]; 800 μM, 48 Hours): 12.34 ± 2.01%
Proliferation of MCF-7 Cells Percent Fluorescence Compared to Control ([5]; 800 μM, 72 Hours): 11.82 ± 2.25%
Proliferation of MCF-7 Cells Percent Fluorescence Compared to Control ([5]; 900 μM, 24 Hours): 32.23 ± 2.13%
Proliferation of MCF-7 Cells Percent Fluorescence Compared to Control ([5]; 900 μM, 48 Hours): 12.03 ± 2.15%
Proliferation of MCF-7 Cells Percent Fluorescence Compared to Control ([5]; 900 μM, 72 Hours): 11.57 ± 2.41%
reduce proliferation by ([5]; MCF-7, 0.3 mM, 48 and 72 hours): about 80%
effect on proliferation (in words) ([5]; MCF-7, NMDAR1 antagonist treatment): decreased the proliferation
Cell viability reduced to [1]: about 10 % of control
Cell viability reduced to [2]: about 10 % of control
IC50 (DMS-53 cells; Homo sapiens, DMS-53, at 48 hours, read-out: IC50, cell viability): 800 µM
effect on proliferation (in words) ([6]; SKBr3, NMDAR1 antagonist treatment): decreased the proliferation

Structure (SMILES): N[C@@H](CCC(=O)O)C(=O)O [glutamate, L-glutamic acid]
Cell cytotoxicity increased ([3]; incubation at 1 mM): 27%
Cell cytotoxicity increased ([3]; incubation at 10 mM): 37%
effect on cell growth/proliferation (in words) [5]: increased proliferation
effect on cell growth/proliferation (in words) (LAN2 neuroblastoma cells): decreased cell growth
inward sodium current increased [4]: 1.5 ×
effect on cell growth/proliferation (in words) [6]: increased proliferation

Structure (SMILES): CC(C(O)c1ccc(O)cc1)N1CCC(Cc2ccccc2)CC1 (centres unmarked) [Ifenprodil]
Cell viability reduced to [1]: about 10 % of control
IC50 [1, 8]: ~150 µM
IC50 [1, 9]: 150 to 200 µM
IC50 [2, 10]: 150 to 200 µM
IC50 [2, 11]: ~150 µM
Cell viability reduced to [2]: about 10 % of control
effect on cell viability (in words) (DMS-53 cells): smaller decreases
time tumors maintained sizes of less than their original size [7, 12]: ~10 days
tumor size by 2 weeks of treatment [7, 12]: < 2 times their original size
tumors first shrank to [7, 12]: ~80 % of their original size
tumor growth vs saline-treated control mice (in words) ([7]; ifenprodil alone): inhibits the growth
body weight compared to saline-treated animals ([7]; over 8 days of drug treatment): no change in body weight
